Measurements published in article PMC9025555, “Chiral Recognition R- and RS- of New Antifungal: Complexation/Solubilization/Dissolution Thermodynamics and Permeability Assay” (Pharmaceutics, 2022).

Tests used:
[1] = Thermodynamics of complexation, solubilization and inherent dissolution (mole fraction scale); assay type: physicochemical; details: for Gibbs free energy of transfer from pure buffer pH 2.0 to CD solution: Eq. (10)
Procedure: The Gibbs energy change of the inherent (in pure aqueous buffer without CD) dissolution ( ΔGinh/sol0,X ) in mole fraction scale was derived from the compound mole fraction solubility ( X20 ) in the following way:(8) ΔGinh/sol0,X=−RTlnX20
The standard solution enthalpies ΔHinh/sol0,X and entropies ΔSinh/sol0,X were calculated using a linear dependence between lnX20 and 1/T and van’t Hoff equation:(9) lnX20=−ΔHinh/sol0,X/RT+ΔSinh/sol0,X/R
The free energy of transferring a compound from the aqueous buffer solution to the CD solution of a certain CD concentration ( CCD ) (corresponds to solubilization process) was calculated by Equation (10):(10) ΔGslbz0,X(CCD)=−RTlnX2/X20, where X20 is the inherent solubility of the drug in mole fraction in the absence of CD at temperature T, and X2 is the total solubility in the presence of CD at the same temperature, R is the universal gas constant. The solubilization enthalpy ( ΔHslbz0,X(CCD) ) and entropy ( TΔSslbz0,X(CCD) ) were derived as follows:(11) ΔHslbz0,X(CCD)=ΔHsol0,X(CCD)−ΔHsol0,X (12) TΔSslbz0,X(CCD)=TΔSsol0,X(CCD)−TΔSsol0,X where ΔHsol0,X and ΔSsol0,X are the enthalpy and entropy of solubility process of the investigated compounds in the absence of CD, whereas ΔHsol0,X(CCD) and ΔSsol0,X(CCD) are the enthalpy and entropy of solubility process in the presence of CD with concentration CCD .
In order to determine the thermodynamic parameters of the complex formation for the compounds with CD, the stability constants ( KCX , mole fraction scale) at different temperatures were obtained using the phase diagrams and mole fractions ( X20 ) (analogously to Equation (3) by the following equation:(13) KCX=slope/X20⋅(1−slope),
Respectively, the Gibbs energy of the complexation in mole fraction scale ( ΔGC0,X ) was derived from the stability constants ( KCX ) in the following way:(14) ΔGC0,X=−RTlnKCX
The thermodynamic parameters of the complexation, i.e., the standard enthalpy change ( ΔHC0,X ) and the standard entropy change ( ΔSC0,X ) were calculated with the help of the integral form of the van’t Hoff’s equation:(15) lnKCX=−ΔHC0,X/RT+ΔSC0,X/R where a plot of lnKCX versus 1/T produces Slope = −ΔHC0,X/R and intercept equal to ΔSC0,X/R .
In order to understand the contribution of the hydrophobic effect (desolvation) to the complexation process on a relative scale, the approach disclosing the correlation of the free energy of complex formation with the free energy of the substance solubility in the same buffer solution proposed by Al Omari et al. was applied. To this end, the Gibbs energy of complex formation ( ΔGCT,X ) and inherent dissolution ( ΔGinh/solT,X ) in mole fraction scale were used. A linear correlation between ΔGCT,X and ΔGsolT,X results in Equation (16):(16) ΔGCT,X=a⋅ΔGinh/solT,X+b where the slope (a) is the magnitude of the hydrophobic effect, and the intercept (b) is the structural factor. […]

in vitro = in vitro ADME
Procedure: Permeability coefficients of RS-186 and R-98 were measured through the PermeaPad barrier (PHABIOC, Germany, Espelkamp, www.permeapad.com, accessed on 20 May 2021) of an effective surface area of 0.785 cm^2 in a vertical type of Franz diffusion cell (PermeGear, Inc., Hellertown, PA, USA) with 7 mL volume. PermeaPad is a biomimetic membrane proposed by di Cagno and Bauer-Brandl for the fast screening of the permeability of the marketed drugs and drug-like compounds. In brief, the barrier was mounted between the donor and receptor chambers. The donor chamber was filled with a stock solution of the investigated substance in buffer solution at pH 2.0 or pH 7.4 and was stirred vigorously during the permeability experiment. The receptor compartment contained 1 mL of the respective fresh buffer. The system was thermostated at 310.15 ± 0.1 K. A probe of 0.5 mL was withdrawn every 30 min from the receptor chamber and replaced with an equal amount of the respective fresh buffer. The permeation process followed the reverse dialysis. The withdrawn samples were analyzed in 96-well UV black plate (Costar) via spectrophotometer (Spectramax 190; Molecular devices, Molecular Devices Corporation, California, CA, USA) at the appropriate wavelength. The permeation profiles were plotted as the amount of the permeated drug over the surface area ( dQ/A ) versus the time ( t ). The flux ( J ) was calculated as a slope of permeation profiles according to the equation:(6) J=dQ/A×dt
The apparent permeability coefficient ( Papp ) was calculated by normalizing the flux measured over the concentration of the drug in the donor compartment ( C0 ), as described by the equation:(7) Papp=J/Co
Each permeability experiment was repeated at least 3 times and the average value of Papp was determined.

[2] = buffer pH 2.0, 298.15 K, mole fraction scale
[3] = buffer pH 2.0 without CD, 298.15 K, mole fraction scale

Compound: O=C1S/C(=C\c2ccc(Cl)cc2)C(=O)N1CC(O)CN1CCN(CC(O)(Cn2cncn2)c2ccc(F)cc2F)CC1 (stereo not drawn) [RS-186, (Z)-5-(4-chlorobenzylidene)-3-(3-(4-(2-(2,4-difluorophenyl)-2-hydroxy-3-(1H-1,2,4-triazol-1-yl)propyl)piperazin-1-yl)-2-hydroxypropyl)thiazolidine-2,4-dione]
- Gibbs free energy of transfer from pure buffer pH 2.0 to CD solution ([1]; CCD 0.01, 298.15 K): -4.73
- Gibbs free energy of transfer from pure buffer pH 2.0 to CD solution ([1]; CCD 0.01, 303.15 K): -4.83
- Gibbs free energy of transfer from pure buffer pH 2.0 to CD solution ([1]; CCD 0.01, 310.15 K): -5.12
- Gibbs free energy of transfer from pure buffer pH 2.0 to CD solution ([1]; CCD 0.01, 313.15 K): -5.43
- Gibbs free energy of transfer from pure buffer pH 2.0 to CD solution ([1]; CCD 0.03, 298.15 K): -6.90
- Gibbs free energy of transfer from pure buffer pH 2.0 to CD solution ([1]; CCD 0.03, 303.15 K): -7.10
- Gibbs free energy of transfer from pure buffer pH 2.0 to CD solution ([1]; CCD 0.03, 310.15 K): -7.36
- Gibbs free energy of transfer from pure buffer pH 2.0 to CD solution ([1]; CCD 0.03, 313.15 K): -7.66
- Gibbs free energy of transfer from pure buffer pH 2.0 to CD solution ([1]; CCD 0.04, 298.15 K): -7.64
- Gibbs free energy of transfer from pure buffer pH 2.0 to CD solution ([1]; CCD 0.04, 303.15 K): -7.84
- Gibbs free energy of transfer from pure buffer pH 2.0 to CD solution ([1]; CCD 0.04, 310.15 K): -8.15
- Gibbs free energy of transfer from pure buffer pH 2.0 to CD solution ([1]; CCD 0.04, 313.15 K): -8.52
- Gibbs free energy of transfer from pure buffer pH 2.0 to CD solution ([1]; CCD 0.05, 298.15 K): -8.22
- Gibbs free energy of transfer from pure buffer pH 2.0 to CD solution ([1]; CCD 0.05, 303.15 K): -8.43
- Gibbs free energy of transfer from pure buffer pH 2.0 to CD solution ([1]; CCD 0.05, 310.15 K): -8.75
- Gibbs free energy of transfer from pure buffer pH 2.0 to CD solution ([1]; CCD 0.05, 313.15 K): -9.06
- slope (a) of ΔGC versus ΔGsol correlation, magnitude of the hydrophobic effect ([1]; Equation (16), pH 2.0, mole fraction scale): −0.611
- solubilization: change of the standard Gibbs energy (ΔGslbz0,X) ([1]; buffer pH 2.0, 298.15 K, calculated at maximal 0.05 M CD concentration): -1.96 kcal/mol
- change of the standard Gibbs energy of inclusion complex formation (ΔGC0,X) [1, 2]: -3.7 kcal/mol
- enthalpy of inclusion complex formation (ΔHC0,X) [1, 2]: -2.22 ± 0.311 kcal/mol
- entropy of inclusion complex formation (TΔSC0,X) [1, 2]: 1.48 ± 0.22 kcal/mol
- solubilization entropy (TΔSslbz0,X) [1, 2]: 3.59 ± 0.789 kcal/mol
- inherent solubility Gibbs energy (ΔGinh/sol0,X) [1, 3]: 7.17 kcal/mol
- inherent solubility enthalpy (ΔHinh/sol0,X) [1, 3]: 4.54 ± 0.526 kcal/mol
- inherent solubility entropy (TΔSinh/sol0,X) [1, 3]: -2.63 ± 0.359 kcal/mol
- ratio |ΔHC0,X| > |TΔSC0,X| ([1]; complexation, pH 2.0, 298.15 K): about 1.5 fold
- Complexation constant (KCX) ([1]; mole fraction scale, buffer pH 2.0, 298.15 K): 525.2 ± 52.9
- contribution of the hydrophobic interactions to the driving force for complex stability ([1]; pH 2.0): ~61%
- permeability decrease up to 0.03 M concentration of CD in donor solution (in vitro; buffer pH 7.4): 8.89 fold
- permeability classification (developers of PermeaPad) (in vitro; in the presence of 0.01 M CD): low
- permeability reduction up to 0.03 M concentration of CD in donor solution (in vitro; pH 2.0): 8.72 fold
- Permeability Coefficient (Papp) (in vitro; pH 2.0, CD 0.01087 M, 310.15 K): (1.12 ± 0.09) × 10^−6 cm·s^−1
- permeability classification (developers of PermeaPad) (in vitro; pure buffers, classification of ref 18): medium permeable
